Measured values from ChEMBL document CHEMBL2429827, “Pharmacological evaluation of some novel synthesized compounds derived from spiro(cyclohexane-1,2-thiazolidines)” (2013).
Values after ≈ are worked out from the molar mass of the structure shown. Active and inactive are the calls of the source. The rule behind the calls is not given here.

Key:
MCF7 = experiment: Cytotoxicity against human MCF7 cells at 100 ug/ml after 72 hrs by SRB assay; type: functional
HepG2 = experiment: Cytotoxicity against human HepG2 cells at 100 ug/ml after 72 hrs by SRB assay; type: functional
[1] = test system: Radical scavenging activity; experiment: Antioxidant activity assessed as DPPH radical scavenging activity at 100 ug/ml after 30 mins by spectroscopic analysis; type: functional
[2] = test system: Radical scavenging activity; experiment: Antioxidant activity assessed as DPPH radical scavenging activity at 50 ug/ml after 30 mins by spectroscopic analysis; type: functional
Aspergillus niger [3] = experiment: Antifungal activity against Aspergillus niger after 48 hrs by two-fold serial dilution technique; type: functional
Candida albicans [4] = experiment: Antifungal activity against Candida albicans NRRL Y-477 after 48 hrs by two-fold serial dilution technique; type: functional; conditions: NRRL Y-477, 48 h
Bacillus subtilis [5] = experiment: Bacteriostatic activity against Bacillus subtilis NRRL B-543 after 24 hrs by two-fold serial dilution technique; type: functional; conditions: NRRL B-543, 24 h
Staphylococcus aureus [6] = experiment: Bacteriostatic activity against Staphylococcus aureus NRRL B-313 after 24 hrs by two-fold serial dilution technique; type: functional; conditions: NRRL B-313, 24 h
Aspergillus niger [7] = experiment: Antifungal activity against Aspergillus niger after 24 hrs by agar diffusion method; type: functional, organism-based
Candida albicans [8] = experiment: Antifungal activity against Candida albicans NRRL Y-477 after 24 hrs by agar diffusion method; type: functional, organism-based
Escherichia coli [9] = experiment: Antibacterial activity against Escherichia coli NRRL B-210 after 24 hrs by agar diffusion method; type: functional, organism-based
Bacillus subtilis [10] = experiment: Antibacterial activity against Bacillus subtilis NRRL B-543 after 24 hrs by agar diffusion method; type: functional, organism-based
Staphylococcus aureus [11] = experiment: Antibacterial activity against Staphylococcus aureus NRRL B-313 after 24 hrs by agar diffusion method; type: functional, organism-based
Escherichia coli [12] = experiment: Bacteriostatic activity against Escherichia coli NRRL B-210 after 24 hrs by two-fold serial dilution technique; type: functional; conditions: NRRL B-210, 24 h

| MIC (Aspergillus niger [3]) | MIC (Candida albicans [4]) | MIC (Bacillus subtilis [5]) | MIC (Staphylococcus aureus [6]) | MIC (Escherichia coli [12]) | SMILES | Activity (MCF7) | Activity (HepG2) | Activity [1] | Activity [2] | Activity (Aspergillus niger [7]) | Activity (Candida albicans [8]) | Activity (Escherichia coli [9]) | Activity (Bacillus subtilis [10]) | Activity (Staphylococcus aureus [11]) |
| --- | --- | --- | --- | --- | --- | --- | --- | --- | --- | --- | --- | --- | --- | --- |
| – | – | – | – | – | Cc1ccc(-c2c3c(nc4nc(C)[nH]c(=O)c24)N(c2ccc(F)cc2)C2(CCCCC2)S3)cc1 | 84% | 78.85% | 92.5% | 65% | – | – | – | – | – |
| 0.3 µg/mL (≈ 0.694 µM) | 0.2 µg/mL (≈ 0.462 µM) | 0.12 µg/mL (≈ 0.277 µM) | 0.125 µg/mL (≈ 0.289 µM) | – | Cc1ccc(-c2c3c(oc(=O)c2C#N)N(c2ccc(F)cc2)C2(CCCCC2)S3)cc1 | – | – | – | – | Active | Active | inactive | Active | Active |
| – | – | – | – | – | Cc1ccc(/C=C2/SC3(CCCCC3)N(c3ccc(F)cc3)C2=O)cc1 | 61.2% | 50.32% | 66.8% | 41.1% | – | – | – | – | – |
| – | – | – | – | – | O=C1/C(=C\c2ccc(Cl)cc2)SC2(CCCCC2)N1c1ccc(Br)cc1 | – | – | – | – | inactive | Active | inactive | Active | inactive |
| – | – | – | – | – | Cc1ccc(-c2c3c(nc4[nH]c(=S)[nH]c(=S)c24)N(c2ccc(F)cc2)C2(CCCCC2)S3)cc1 | 64.2% | 50.21% | 84.6% | 60% | – | – | – | – | – |
| – | – | – | – | – | O=C1/C(=C\c2ccc(Cl)cc2)SC2(CCCCC2)N1c1ccc(F)cc1 | – | – | – | – | inactive | Active | Active | inactive | inactive |
| 0.45 µg/mL (≈ 1.61 µM) | 0.435 µg/mL (≈ 1.56 µM) | 0.4 µg/mL (≈ 1.43 µM) | 0.4 µg/mL (≈ 1.43 µM) | – | N/N=C1\CSC2(CCCCC2)N1c1ccc(F)cc1 | – | – | – | – | Active | Active | inactive | Active | Active |
| – | 0.2 µg/mL (≈ 0.613 µM) | 0.2 µg/mL (≈ 0.613 µM) | 0.3 µg/mL (≈ 0.92 µM) | 0.2 µg/mL (≈ 0.613 µM) | O=C1CSC2(CCCCC2)N1c1ccc(Br)cc1 | – | – | – | – | Active | Active | Active | Active | Active |
| – | – | – | – | – | Cc1ccc(C2NOC3=C2SC2(CCCCC2)N3c2ccc(F)cc2)cc1 (centres undefined) | 56.62% | 45.6% | 60.5% | 41% | inactive | Active | inactive | inactive | inactive |
| – | – | – | – | – | Fc1ccc(N2/C(=N/Nc3ccccc3)CSC23CCCCC3)cc1 | – | – | – | – | inactive | Active | inactive | inactive | Active |
| 0.125 µg/mL (≈ 0.471 µM) | 0.125 µg/mL (≈ 0.471 µM) | 0.125 µg/mL (≈ 0.471 µM) | 0.15 µg/mL (≈ 0.565 µM) | 0.125 µg/mL (≈ 0.471 µM) | O=C1CSC2(CCCCC2)N1c1ccc(F)cc1 | – | – | – | – | Active | Active | Active | Active | Active |
| – | – | – | – | – | Cc1ccc(-c2c(C#N)c(N)nc3c2SC2(CCCCC2)N3c2ccc(F)cc2)cc1 | 55.84% | 45% | 85% | 54.6% | inactive | Active | inactive | inactive | Active |
| – | – | – | – | – | CC(=O)Nc1nc2c(c(-c3ccc(C)cc3)c1C#N)SC1(CCCCC1)N2c1ccc(F)cc1 | 65% | 50.63% | 79.8% | 49.9% | – | – | – | – | – |
| – | – | – | – | – | Cc1ccc(-c2c3c(nc4[nH]c(=S)nc(NN)c24)N(c2ccc(F)cc2)C2(CCCCC2)S3)cc1 | 45.62% | 15.65% | 78.2% | 50.2% | – | – | – | – | – |
| – | – | – | – | – | NS(=O)(=O)c1ccc(/N=C2\CSC3(CCCCC3)N2c2ccc(F)cc2)cc1 | – | – | – | – | inactive | Active | inactive | Active | Active |
| 0.3 µg/mL (≈ 0.724 µM) | 0.45 µg/mL (≈ 1.09 µM) | 0.175 µg/mL (≈ 0.422 µM) | 0.175 µg/mL (≈ 0.422 µM) | – | O=C1/C(=N\Nc2ccc([N+](=O)[O-])cc2)SC2(CCCCC2)N1c1ccc(F)cc1 | – | – | – | – | inactive | Active | inactive | Active | Active |
